Results taken from US20250304540A1, “2-METHYL-2-THIAZOLINE SALT” (Myrodia Therapeutics Co., Ltd., priority 2022, published 2025).
Where a name gives a salt, the structure may show the parent alone.

What was measured:
Type in all cases: physicochemical
[1] = Stability in the solid state at 40° C., checked by 1H NMR; settings: vial, heated to 40° C., left standing for three days
Method: 2-MT-NDSA salt was placed in a vial, heated to 40° C., and left standing for three days. […] Thus, it can be said that 2-MT·NDSA salt is stable in the solid state at 40° C. for 3 days (corresponding to 2 weeks at 25° C.).

[2] = Solubility in phosphate buffered saline by visual observation; settings: aqueous buffer, thermodynamic from solid, phosphate buffered saline (PBS pH 7.2-7.4), room temperature
Method: When 2-MT-NDSA salt (20 mg) was added to phosphate buffered saline (PBS pH 7.2-7.4, FUJIFILM Wako Pure Chemical Corporation 164-18541, 1 mL) at room temperature, the salt was dissolved easily. The 2-MT-NDSA salt was further added by […] to the solution. By visual observation to confirm dissolution, undissolved remainder was confirmed when the total amount reached 200 mg. Thus, the solubility under the present conditions was 100 mg/mL to 200 mg/mL.

[3] = Deliquescence by visual observation; settings: relative humidity of about 75%, 25° C., 23 hr
Method: A petri dish containing 2-MT-NDSA salt was placed in a relative humidity of about 75%, and left standing in a thermostatic tank at 25° C. for 23 hr.

[4] = Humidity stress test with XRPD analysis; settings: unsealed vial, 7 days
Method: XRPD analyses were performed using a Panalytical Empyrean diffractometer equipped with a Cu X-ray tube and a PIXcel 1D-Medipix3 detector system. The samples were analyzed at ambient temperature in transmission mode and held between low density PVC films. The XRPD program was used (range 3-40° […], step size 0.013°, counting time 99 sec, about 22 min run time/counting time 49 sec, about 11 min run time/counting time 22 sec, about 5 min run time). Samples were spun at 60 rpm during data collection. XRPD patterns were sorted and manipulated using HighScore Plus 2.2c/v4.9 software.
A given amount of salt was charged into a vial and placed unsealed in a thermostatic tank at 40° C./75% relative humidity or ambient temperature for 7 days and XRPD analysis was performed.

stability in the solid state (1H NMR before and after) [1]: no change in the peaks was observed
solubility [2]: 100 to 200 mg/mL
deliquescence [3]: No deliquescence
physical stability post storage (XRPD) ([4]; 40° C./75% relative humidity): physically stable
physical stability post storage (XRPD) ([4]; ambient temperature): physically stable
Structure (SMILES): CC1=NCCS1 [2-MT-NDSA salt, monohydrate of a hemi-1,5-naphthalenedisulfonic acid salt of 2-methyl-2-thiazoline]
